Reference: patent US5354862A, “Preparation and the use of halopropargylated cyclic quaternary ammonium compounds as antimicrobial agents” (Rohm and Haas Company, priority 1993, dated 1994)
Values after ≈ are worked out from the molar mass of the structure shown. Read-outs that look alike come from different tables or passages of the source.

Tests used:
Pseudomonas aeruginosa = assay: Broth two-fold serial dilution MIC test; type: cell-based, Pseudomonas aeruginosa (ATCC 15442)
In short: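 Broth two-fold serial dilution MIC (500 to 0.25 ppm) was run against Pseudomonas aeruginosa, with compound from 1% stock in acetone/methanol/water 5:3:2. Vessels inoculated with standardized broth-grown cells were incubated, then scored for growth. MIC is the lowest concentration giving complete growth inhibition.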

Escherichia coli = assay: Broth two-fold serial dilution MIC test; type: cell-based, Escherichia coli (ATCC 11229); conditions: Table 2, Ecol
In short: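 Broth two-fold serial dilutions ran from 500 down to 0.25 ppm, prepared from a stock in acetone/methanol/water (5:3:2). Each tube received a standardized bacterial suspension and was incubated at a temperature suited to the species. MIC is the lowest concentration giving complete growth inhibition.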

Staphylococcus aureus = assay: Broth two-fold serial dilution MIC test; type: cell-based, Staphylococcus aureus (ATCC 6538)
In short: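 Broth two-fold serial dilution from 500 ppm down to 0.25 ppm, compound delivered from acetone/methanol/water stock, inoculated with standardized cell suspension and incubated at an organism-appropriate temperature. MIC is the lowest concentration giving complete growth inhibition.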

Aspergillus niger = assay: Broth two-fold serial dilution MIC test; type: cell-based, Aspergillus niger (ATCC 6275)
In short: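 Two-fold broth serial dilution from 500 ppm down to 0.25 ppm, compound stock in acetone/methanol/water 5:3:2. Vessels inoculated with standardized spore suspension harvested from agar slants, incubated at a species-appropriate temperature, then scored for growth/no growth. MIC is the lowest concentration giving complete growth inhibition.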

Enterobacter aerogenes = assay: MIC test, side-by-side comparison; type: cell-based; conditions: Table 4 side-by-side, E. Aerogenes; for MIC: Klebsiella aerogenes
Description: (§1) A minimum inhibitory concentration (MIC) value is obtained using a broth, two-fold serial dilution test performed as follows: A stock solution or dispersion of the test compound, typically at a concentration of 1%, is made in a 5:3:2 solvent solution of acetone. methanol, and water. A volume of the stock solution is dispensed into culture media to give an initial starting test concentration of 500 ppm compound.
(§2) When the test is ready to be done, each vessel in the dilution series, except the first vessel, contains an equal volume of compound free broth. The first vessel contains twice the volume of broth with the starting concentration of test compound. One half of the broth from the first vessel is transferred to the second vessel- After being mixed, one half the resulting volume is removed from the second vessel and transferred to the third vessel. The entire cycle is repeated sufficiently to give a series of concentrations amounting to 500, 250, 125, 63, 31, 16, 8, and 4, 2, 1, 0.5, 0.25 ppm respectively.
(§3) Each vessel is then inoculated with a cell suspension of the appropriate test organism. Bacteria are grown in broth, fungi on agar slants for a time and at a temperature appropriate to the species being tested, and algae are a mixture of green algae and blue-green bacteria grown in a nutrient media. At the end of the growth period, in the case of bacteria, the broth is vortexed to disperse the cells.
(§4) In the case of fungi, the spores are harvested by pipetting water onto the slant and dislodging the spores with a sterile loop. The cell/spore suspension is standardized by controlling incubation time, temperature, and the volume of the diluent. The suspension is then used to inoculate the vessels containing the broth compound.
(§5) The vessels are then incubated at the appropriate temperature. After the incubation, the vessels are examined for growth/no growth. The minimum inhibitory concentration (MIC) is defined as the lowest concentration of compound that results in complete inhibition of growth of the test organism.
(§6) These five compounds were tested side-by-side against six organisms, Pseudomonas aeruginosa (P. aeruginosa), Klebsiella pneurnoniae (K. pneumoniae), Enterobacter aerogenes (E. aerogenes), Proteus mirabilis (P. mirabilis), Staphylococcus aureus (S. aureus), and Aspergillus niger (A. niger). The MIC tests were performed as in example 6.

Klebsiella pneurnoniae = assay: MIC test, side-by-side comparison; type: cell-based; conditions: for MIC: read-out: MIC Values
Description: as §1, §2, §3, §4, §5, §6

Proteus mirabilis = assay: MIC test, side-by-side comparison; type: cell-based; conditions: Table 4 side-by-side, P. mirabilis; for MIC: Proteus mirabilis
Description: as §1, §2, §3, §4, §5, §6

[1] = Pseudomonas aeruginosa, Table 4 side-by-side, P. aeruginosa, read-out: MIC Values
[2] = Staphylococcus aureus, Table 4 side-by-side, S. aureus, read-out: MIC Values
[3] = Aspergillus niger, Table 4 side-by-side, A. niger, read-out: MIC Values

Structure (SMILES)	MIC (Pseudomonas aeruginosa; [1]) [µg/mL]	MIC (Pseudomonas aeruginosa; Table 2, Psae, M9G media) [ppm]	MIC (Pseudomonas aeruginosa; Table 2, Psae, TSB media) [ppm]	MIC (Escherichia coli; M9G media) [ppm]	MIC (Escherichia coli; TSB media) [ppm]	MIC (Staphylococcus aureus; [2]) [µg/mL]	MIC (Staphylococcus aureus; Table 2, Saur, M9G media) [ppm]	MIC (Staphylococcus aureus; Table 2, Saur, TSB media) [ppm]	MIC (Aspergillus niger; [3]) [µg/mL]	MIC (Aspergillus niger; Table 2, Anig, TSB media) [ppm]	MIC (Enterobacter aerogenes) [µg/mL]	MIC (Klebsiella pneurnoniae) [µg/mL]	MIC (Proteus mirabilis) [µg/mL]	MIC Values (Pseudomonas aeruginosa; Table 4 side-by-side, P. aeruginosa) [ppm]	MIC Values (Staphylococcus aureus; Table 4 side-by-side, S. aureus) [ppm]	MIC Values (Aspergillus niger; Table 4 side-by-side, A. niger) [ppm]	MIC Values (Enterobacter aerogenes) [ppm]	MIC Values (Klebsiella pneurnoniae; Table 4 side-by-side, K. Pneumoniae) [ppm]	MIC Values (Proteus mirabilis) [ppm]
CCCCCCCCCCCCCC[N+]1(CC#CI)CCOCC1 [Compound 41, 4-tetradecyl-4-(3-iodoprolyargyl)-morpholinium benzenesulfonate]	8	2	4	< 0.25	< 0.25	0.5	< 0.25	0.5	8	2	2	4	4						
CCCCCCCCCCCCCC[N+]1(CC#CI)CCOCC1 [Compound 42, 4-tetradecyl-4-(3-iodopropargyl)-morpholinium methanesulfonate]		1	4	< 0.25	< 0.25		< 0.25	0.5		1				16	1	8	1	4	4
IC#CCN1CCOCC1 [Compound J2, N-(3-iodo-2-propynyl)-morpholine, reference compound]	> 500					250 (≈ 996 µM)			8 (≈ 31.9 µM)		250 (≈ 996 µM)	500 (≈ 1990 µM)	500 (≈ 1990 µM)						
CCCCCCCCCCCCCC[N+]1(CC#CI)CCCCC1 [Compound 25, 1-(tetradecyl)-1-(3-iodopropargyl)-piperidinium 4-methylbenzenesulfonate]	8	8	2	2	16	0.5	0.25	0.25	8	8	1	4	4						
IC#CCN1CCCCC1 [Compound J1, N-(3-iodo-2-propynyl)-piperidine, reference compound]	> 500					125 (≈ 502 µM)			16 (≈ 64.2 µM)		32 (≈ 128 µM)	125 (≈ 502 µM)	125 (≈ 502 µM)						
